# Data from patent US12091399B2, “Phenyltetrazole derivatives as plasma kallikrein inhibitors” (Boehringer Ingelheim International GmbH, priority 2018, dated 2024).
# Biological target: T1, Human PKK (Homo sapiens (Human), UniProt P03952)
# Test: Inhibition of PKK using an endpoint assay (human PKK)
# Type: biochemical
# Conditions: 1 h at rt, 0.10 μM H-Pro-Phe-Arg-AMC
# Description: (§1) The ability of compounds of formula (I) to inhibit plasma kallikrein (PKK), Factor XIIa (FXIIa), Factor XIa (FXIa), Factor Xa (FXa), Factor IIa (alpha-thrombin; FIIa), plasmin, trypsin, tissue kallikrein 1 (TK1), Factor Vila (FVIIa), or FVIIa complexed with Tissue Factor, phospholipids and CaCl2) (FVIIa/TF/PL/CaCl2) was determined using the following biochemical assays in assay buffer (100 mM Tris, 150 mM NaCL, adjusted to a pH of 7.8 with HCl, and containing 0.1% (w/v) BSA and 0.05% (v/v) Tween20) in the presence of 1% (v/v) DMSO:
# Subsequently, PPACK II (Calbiochem) was added as a stop solution to achieve a final concentration of 1 μM and fluorescence was measured using an Envision Reader (PerkinElmer) with the wavelength excitation setting of 355 nm and the wavelength emission setting of 460 nm. The number of the compound corresponds to the number of the Example in the experimental section.
# T1 sequence (P03952 391-638): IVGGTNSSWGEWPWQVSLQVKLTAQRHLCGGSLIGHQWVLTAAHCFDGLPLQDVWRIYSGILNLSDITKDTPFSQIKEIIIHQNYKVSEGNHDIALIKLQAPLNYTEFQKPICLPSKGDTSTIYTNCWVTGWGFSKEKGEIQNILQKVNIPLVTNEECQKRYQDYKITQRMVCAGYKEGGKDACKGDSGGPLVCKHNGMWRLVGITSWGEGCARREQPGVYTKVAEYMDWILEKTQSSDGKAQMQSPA
# T1 sequence (P03952 20-390 partner): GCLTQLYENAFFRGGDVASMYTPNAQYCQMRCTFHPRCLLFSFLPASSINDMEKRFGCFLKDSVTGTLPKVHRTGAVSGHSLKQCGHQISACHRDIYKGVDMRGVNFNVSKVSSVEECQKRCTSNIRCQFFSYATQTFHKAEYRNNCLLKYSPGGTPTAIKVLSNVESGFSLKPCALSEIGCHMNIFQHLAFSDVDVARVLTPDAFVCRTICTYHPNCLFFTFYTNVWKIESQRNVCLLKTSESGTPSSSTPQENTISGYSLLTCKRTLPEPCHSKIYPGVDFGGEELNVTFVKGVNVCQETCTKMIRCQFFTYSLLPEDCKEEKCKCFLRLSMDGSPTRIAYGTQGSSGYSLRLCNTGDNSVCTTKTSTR
row,SMILES,IC50 [nM]
1,"Cc1nc(N2CC3CC3C2)ccc1Cn1cc(C(=O)NCc2cc(Cl)ccc2-n2cnnn2)cn1 (stereo not drawn) [Example 1, 1-[(6-{3-azabicyclo[3.1.0]hexan-3-yl}-2-methylpyridin-3-yl)methyl]-N-{[5-chloro-2-(1H-1,2,3,4-tetrazol-1-yl)phenyl]-methyl}-1H-pyrazole-4-carboxamide]",0.5
2,Cc1nc(N2CC3C(C2)C3(F)F)ccc1Cn1cc(C(=O)NCc2cc(Cl)ccc2-n2cnnn2)cn1 (stereo not drawn) [Example 6],0.4
3,"Cc1nc(N2CCCC3(CC3)C2)ccc1Cn1cc(C(=O)NCc2cc(Cl)ccc2-n2cnnn2)cn1 [Example 72, 1-[(6-{5-azaspiro[2.5]octan-5-yl}-2-methylpyridin-3-yl)methyl]-N-{[5-chloro-2-(1H-1,2,3,4-tetrazol-1-yl)phenyl]methyl}-1H-pyrazole-4-carboxamide]",74
4,"Cc1nc(N2CC3CCCC3C2)ccc1Cn1cc(C(=O)NCc2cc(Cl)ccc2-n2cnnn2)cn1 (stereo not drawn) [Example 73, N-{[5-chloro-2-(1H-1,2,3,4-tetrazol-1-yl)phenyl]methyl}-1-[(2-methyl-6-{octahydrocyclopenta[c]pyrrol-2-yl}pyridin-3-yl)methyl]-1H-pyrazole-4-carboxamide]",9
5,"Cc1nc(N2CC3(CNC(=O)C3)C2)ccc1Cn1cc(C(=O)NCc2cc(Cl)ccc2-n2cnnn2)cn1 [Example 74, N-{[5-chloro-2-(1H-1,2,3,4-tetrazol-1-yl)phenyl]methyl}-1-[(2-methyl-6-{7-oxo-2,6-diazaspiro[3.4]octan-2-yl}pyridin-3-yl)methyl]-1H-pyrazole-4-carboxamide]",232
6,"Cc1nc(N2CC3COCC(C3)C2)ccc1Cn1cc(C(=O)NCc2cc(Cl)ccc2-n2cnnn2)cn1 [Example 75, N-{[5-chloro-2-(1H-1,2,3,4-tetrazol-1-yl)phenyl]methyl}-1-[(2-methyl-6-{3-oxa-7-azabicyclo[3.3.1]nonan-7-yl}pyridin-3-yl)methyl]-1H-pyrazole-4-carboxamide]",7
7,"Cc1nc(N2CCC3(CCCO3)C2)ccc1Cn1cc(C(=O)NCc2cc(Cl)ccc2-n2cnnn2)cn1 (stereo not drawn) [Example 76, N-{[5-chloro-2-(1H-1,2,3,4-tetrazol-1-yl)phenyl]methyl}-1-[(2-methyl-6-{1-oxa-7-azaspiro[4.4]nonan-7-yl}pyridin-3-yl)methyl]-1H-pyrazole-4-carboxamide]",3
8,"Cc1nc(N2CC3CC2CO3)ccc1Cn1cc(C(=O)NCc2cc(Cl)ccc2-n2cnnn2)cn1 (stereo not drawn) [Example 77, N-{[5-chloro-2-(1H-1,2,3,4-tetrazol-1-yl)phenyl]methyl}-1-[(2-methyl-6-{2-oxa-5-azabicyclo[2.2.1]heptan-5-yl}pyridin-3-yl)methyl]-1H-pyrazole-4-carboxamide]",49
9,"Cc1nc(N2CC3(CCOCC3)C2)ccc1Cn1cc(C(=O)NCc2cc(Cl)ccc2-n2cnnn2)cn1 [Example 78, N-{[5-chloro-2-(1H-1,2,3,4-tetrazol-1-yl)phenyl]methyl}-1-[(2-methyl-6-{7-oxa-2-azaspiro[3.5]nonan-2-yl}pyridin-3-yl)methyl]-1H-pyrazole-4-carboxamide]",19
10,"Cc1nc(N2CC3(C2)CN(C(C)C)C3)ccc1Cn1cc(C(=O)NCc2cc(Cl)ccc2-n2cnnn2)cn1 [Example 79, N-{[5-chloro-2-(1H-1,2,3,4-tetrazol-1-yl)phenyl]methyl}-1-({2-methyl-6-[6-(propan-2-yl)-2,6-diazaspiro[3.3]heptan-2-yl]pyridin-3-yl}methyl)-1H-pyrazole-4-carboxamide]",1060
11,CO[C@H]1[C@@H]2CC[C@H]1CN(c1ccc(Cn3cc(C(=O)NCc4cc(Cl)ccc4-n4cnnn4)cn3)c(C)n1)C2 [Example 80],22
12,"Cc1nc(N2CC3(CCOC3)C2)ccc1Cn1cc(C(=O)NCc2cc(Cl)ccc2-n2cnnn2)cn1 [Example 81, N-{[5-chloro-2-(1H-1,2,3,4-tetrazol-1-yl)phenyl]methyl}-1-[(2-methyl-6-{6-oxa-2-azaspiro[3.4]octan-2-yl}pyridin-3-yl)methyl]-1H-pyrazole-4-carboxamide]",22
13,"Cc1nc(N2CCC3CC32)ccc1Cn1cc(C(=O)NCc2cc(Cl)ccc2-n2cnnn2)cn1 (stereo not drawn) [Example 82, 1-[(6-{2-azabicyclo[3.1.0]hexan-2-yl}-2-methylpyridin-3-yl)methyl]-N-{[5-chloro-2-(1H-1,2,3,4-tetrazol-1-yl)phenyl]methyl}-1H-pyrazole-4-carboxamide]",7
14,"Cc1nc(N2CC3(CN(C)C3)C2)ccc1Cn1cc(C(=O)NCc2cc(Cl)ccc2-n2cnnn2)cn1 [Example 83, N-{[5-chloro-2-(1H-1,2,3,4-tetrazol-1-yl)phenyl]methyl}-1-[(2-methyl-6-{6-methyl-2,6-diazaspiro[3.3]heptan-2-yl}pyridin-3-yl)methyl]-1H-pyrazole-4-carboxamide]",1090
15,"COC1C2CC1CN(c1ccc(Cn3cc(C(=O)NCc4cc(Cl)ccc4-n4cnnn4)cn3)c(C)n1)C2 (stereo not drawn) [Example 84, N-{[5-chloro-2-(1H-1,2,3,4-tetrazol-1-yl)phenyl]methyl}-1-[(6-{6-methoxy-3-azabicyclo[3.1.1]heptan-3-yl}-2-methylpyridin-3-yl)methyl]-1H-pyrazole-4-carboxamide]",4
16,"Cc1nc(N2CCC3CC3C2)ccc1Cn1cc(C(=O)NCc2cc(Cl)ccc2-n2cnnn2)cn1 (stereo not drawn) [Example 85, 1-[(6-{3-azabicyclo[4.1.0]heptan-3-yl}-2-methylpyridin-3-yl)methyl]-N-{[5-chloro-2-(1H-1,2,3,4-tetrazol-1-yl)phenyl]methyl}-1H-pyrazole-4-carboxamide]",3
17,Cc1nc(N2C[C@@H]3[C@@H](C)[C@@H]3C2)ccc1Cn1cc(C(=O)NCc2cc(Cl)ccc2-n2cnnn2)cn1 [Example 86],7
18,"Cc1nc(N2C[C@@H]3C[C@]3(N)C2)ccc1Cn1cc(C(=O)NCc2cc(Cl)ccc2-n2cnnn2)cn1 [Example 88, 1-({6-[(1R,5S)-1-amino-3-azabicyclo[3.1.0]hexan-3-yl]-2-methylpyridin-3-yl}methyl)-N-{[5-chloro-2-(1H-1,2,3,4-tetrazol-1-yl)phenyl]methyl}-1H-pyrazole-4-carboxamide]",127
19,"Cc1nc(N2CC[C@@]3(N)C[C@H]3C2)ccc1Cn1cc(C(=O)NCc2cc(Cl)ccc2-n2cnnn2)cn1 [Example 89, 1-({6-[(1S,6S)-6-amino-3-azabicyclo[4.1.0]heptan-3-yl]-2-methylpyridin-3-yl}methyl)-N-{[5-chloro-2-(1H-1,2,3,4-tetrazol-1-yl)phenyl]methyl}-1H-pyrazole-4-carboxamide]",61
20,"Cc1nc(N2CC3CCC(C2)N3)ccc1Cn1cc(C(=O)NCc2cc(Cl)ccc2-n2cnnn2)cn1 [Example 90, N-{[5-chloro-2-(1H-1,2,3,4-tetrazol-1-yl)phenyl]methyl}-1-[(6-{3,8-diazabicyclo[3.2.1]octan-3-yl}-2-methylpyridin-3-yl)methyl]-1H-pyrazole-4-carboxamide]",119
21,"Cc1nc(N2CC3(CCCN3)C2)ccc1Cn1cc(C(=O)NCc2cc(Cl)ccc2-n2cnnn2)cn1 [Example 91, N-{[5-chloro-2-(1H-1,2,3,4-tetrazol-1-yl)phenyl]methyl}-1-[(6-{2,5-diazaspiro[3.4]octan-2-yl}-2-methylpyridin-3-yl)methyl]-1H-pyrazole-4-carboxamide]",122
22,"Cc1nc(N2C[C@@H]3CCN[C@@H]3C2)ccc1Cn1cc(C(=O)NCc2cc(Cl)ccc2-n2cnnn2)cn1 [Example 92, 1-({6-[(3aS,6aS)-octahydropyrrolo[3,4-b]pyrrol-5-yl]-2-methylpyridin-3-yl}methyl)-N-{[5-chloro-2-(1H-1,2,3,4-tetrazol-1-yl)phenyl]methyl}-1H-pyrazole-4-carboxamide]",155
23,"Cc1nc(N2CCC3(CNC3)C2)ccc1Cn1cc(C(=O)NCc2cc(Cl)ccc2-n2cnnn2)cn1 [Example 93, N-{[5-chloro-2-(1H-1,2,3,4-tetrazol-1-yl)phenyl]methyl}-1-[(6-{2,6-diazaspiro[3.4]octan-6-yl}-2-methylpyridin-3-yl)methyl]-1H-pyrazole-4-carboxamide]",286
24,"Cc1nc(N2CC3(CC3)C2)ccc1Cn1cc(C(=O)NCc2c(F)cccc2-n2cnnn2)cn1 [Example 94, 1-[(6-{5-azaspiro[2.3]hexan-5-yl}-2-methylpyridin-3-yl)methyl]-N-{[2-fluoro-6-(1H-1,2,3,4-tetrazol-1-yl)phenyl]methyl}-1H-pyrazole-4-carboxamide]",4

# Biological target: PKK in kaolin activated human platelet poor plasma (Homo sapiens (Human), UniProt P03952)
# Test: Inhibition of PKK in kaolin activated human PPP
# Type: biochemical
# Conditions: global fit over 25, 75, 250, 750 μg/mL kaolin, 37° C.
# Description: Platelet poor plasma (PPP) obtained from human wholeblood, anticoagulated with Na-Citrate, was incubated with various concentrations of the test compound together with either 25, 75, 250, or 750 μg/mL kaolin in assay buffer for 20 min at 37° C. such that for each kaolin dose used a concentration response was obtained for the test compound.
# The number of the compound corresponds to the number of the Example in the experimental section.
# Sequence of PKK in kaolin activated human platelet poor plasma (P03952 391-638): as the sequence (P03952 391-638) above
# Sequence of PKK in kaolin activated human platelet poor plasma (P03952 20-390 partner): as the sequence (P03952 20-390 partner) above
row,SMILES,IC90 [nM]
1,"Cc1nc(N2CC3CC3C2)ccc1Cn1cc(C(=O)NCc2cc(Cl)ccc2-n2cnnn2)cn1 (stereo not drawn) [Example 1, 1-[(6-{3-azabicyclo[3.1.0]hexan-3-yl}-2-methylpyridin-3-yl)methyl]-N-{[5-chloro-2-(1H-1,2,3,4-tetrazol-1-yl)phenyl]-methyl}-1H-pyrazole-4-carboxamide]",202
2,Cc1nc(N2CC3C(C2)C3(F)F)ccc1Cn1cc(C(=O)NCc2cc(Cl)ccc2-n2cnnn2)cn1 (stereo not drawn) [Example 6],184

# Biological target: T1, Human PKK
# Test: Inhibition of PKK (Ki), kinetic assay
# Type: biochemical
# Conditions: 24° C., 0.25 mM H-Pro-Phe-Arg-AMC, IC50 corrected for KM
# Description: as §1
# Human PKK (1.78 nM or 0.025 U/mL; Enzyme Research Laboratories) was incubated at 24° C. with 0.25 mM fluorogenic substrate H-Pro-Phe-Arg-AMC (11295 from Bachem) and various concentrations of the test compound in assay buffer. Measurements were performed in a kinetic interval every 2nd minute for 16 min using a Spectramax M5 (Molecular Devices) with the following settings of the wavelength excitation of 350 nm and wavelength emission of 450 nm. The number of the compound corresponds to the number of the Example in the experimental section.
# The pIC50 values were then fitted using a four-parametric fitting procedure using GraphPad Prism (version 6; GraphPad Software, Inc.). Respective Ki values were obtained by correction of the IC50 values for the respective KM value of the used substrate (see Table A for the obtained KM values of the used substrates) using the following formula: […]
# Where the IC50 is in mol/L and the KM value in mmol/L.
row,SMILES,Ki [nM]
1,"Cc1nc(N2CC3CC3C2)ccc1Cn1cc(C(=O)NCc2cc(Cl)ccc2-n2cnnn2)cn1 (stereo not drawn) [Example 1, 1-[(6-{3-azabicyclo[3.1.0]hexan-3-yl}-2-methylpyridin-3-yl)methyl]-N-{[5-chloro-2-(1H-1,2,3,4-tetrazol-1-yl)phenyl]-methyl}-1H-pyrazole-4-carboxamide]",0.3
